# Assay results: patent publication US20220340875A1, “METHODS OF CULTURING AND/OR EXPANDING STEM CELLS AND/OR LINEAGE COMMITTED PROGENITOR CELLS USING AMIDO COMPOUNDS” (IDEAYA BIOSCIENCES, INC., priority 2018, published 2022)
# Target: T1, hAhR (Homo sapiens, UniProt P35869)
# T1 construct: Stably integrated DRE-luciferase cell lines were generated by transducing the both cell lines with Cignal XRE luciferase reporter (Qiagen) lentiviral particles; endogenous in cells
# T1 sequence (P35869 11-848): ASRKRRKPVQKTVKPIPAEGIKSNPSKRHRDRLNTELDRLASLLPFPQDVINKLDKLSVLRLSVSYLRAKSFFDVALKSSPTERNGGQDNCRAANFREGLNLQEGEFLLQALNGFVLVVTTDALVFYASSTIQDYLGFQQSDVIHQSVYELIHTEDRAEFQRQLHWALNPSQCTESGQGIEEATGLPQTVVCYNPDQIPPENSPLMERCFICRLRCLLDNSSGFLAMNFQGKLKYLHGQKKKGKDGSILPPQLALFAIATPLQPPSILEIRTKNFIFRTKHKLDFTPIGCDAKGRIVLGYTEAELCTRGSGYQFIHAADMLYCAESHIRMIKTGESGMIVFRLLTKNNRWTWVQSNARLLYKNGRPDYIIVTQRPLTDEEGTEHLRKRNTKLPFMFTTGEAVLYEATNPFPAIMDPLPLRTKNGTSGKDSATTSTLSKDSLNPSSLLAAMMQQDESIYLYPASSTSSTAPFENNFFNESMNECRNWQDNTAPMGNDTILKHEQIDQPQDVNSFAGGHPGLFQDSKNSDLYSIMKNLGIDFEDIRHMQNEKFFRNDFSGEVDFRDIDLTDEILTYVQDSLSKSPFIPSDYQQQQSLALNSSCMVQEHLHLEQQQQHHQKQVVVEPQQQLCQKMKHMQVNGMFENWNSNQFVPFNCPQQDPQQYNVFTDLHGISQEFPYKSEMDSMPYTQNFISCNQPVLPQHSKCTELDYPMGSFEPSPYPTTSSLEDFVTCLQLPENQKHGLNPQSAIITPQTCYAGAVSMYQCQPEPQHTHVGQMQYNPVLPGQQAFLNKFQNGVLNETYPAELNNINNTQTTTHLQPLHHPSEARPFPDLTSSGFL
# Assay: AhR DRE-luciferase reporter transcriptional assay, antagonist mode (TCDD-induced)
# Type: cell-based
# Conditions: HEPG2 DRE-Luc cells, 3 nM TCDD, 24 hour incubation, relative IC50
# Experimental: HEPG2 and HEPA1C1C7 cells were maintained in MEM and αMEM without nucleosides supplemented with 10% heat inactivated FBS respectively. Stably integrated DRE-luciferase cell lines were generated by transducing the both cell lines with Cignal XRE luciferase reporter (Qiagen) lentiviral particles according to the manufacturer protocol. For both cell lines stably integrated reporter cell lines were selected for the presence of 2 µg/mL puromycin. Following selection of stably integrated cell line pools, clonal cell lines were isolated by limiting dilution in 96-well plates. Transcriptional assays were performed by seeding 100 μL of cells at a density of 250,000 or 100,000 cells/mL, for HEPG2 and HEPA1C1C7 DRE-Luc cells respectively, into 96-well cell culture plates in OptiMEM supplemented with 0.5% heat inactivated FBS and allowed to attach overnight. For modulator assays, the compounds were added in a semi-log dose response using a D300e Digital Dispenser (Tecan) followed normalization with vehicle (DMSO). Immediately following compound addition 10 μL of 2,3,7,8-Tetrachlorodibenzo-p-dioxin (TCDD) was added to the cells to a final concentration of 3 nM or 0.3 nM for the HEPG2 and HEPA1C1C7 DRE-Luc cells respectively. Following 24 hour incubation the medium was removed and the cells were lysed in 25 μL of Reporter Lysis Buffer (Promega). Firefly luciferase activity was measured immediately following the addition of 50 μL Luciferase Assay Reagent (Promega). The percent maximal activity for each point was determined using the following equasion: (RLUsample-RLUvehicle−TCDD)/(RLUvehicle+TCDD RLUvehicle−TCDD)*100. The relative IC50, defined as the compound concentration required to reduce the TCDD induced response between the top and bottom plateau of each individual dose response curve by half, for each compound was determined using Prism 7 (GraphPad Software).
row,Structure (SMILES),IC50
1,"Cc1cc(-c2ncc3ccn(CC(F)(F)F)c3n2)ccc1NC(=O)c1ccnn1C [Example 091, 1-Methyl-N-(2-methyl-4-(7-(2,2,2-trifluoroethyl)-7H-pyrrolo[2,3-d]pyrimidin-2-yl)phenyl)-1H-pyrazole-5-carboxamide]",200 to 500 nM
2,"Cc1cc(NC(=O)c2ccnn2C)ccc1-c1ccc2cc(F)ccc2n1 [Example 050, N-(4-(6-fluoroquinolin-2-yl)-3-methylphenyl)-1-methyl-1H-pyrazole-5-carboxamide]",500 to 1000 nM
3,"Cc1cc(-c2ccc3cc(C(F)(F)F)ccc3n2)ccc1N(C)C(=O)c1ccnn1C [Example 002, N,1-Dimethyl-N-(2-methyl-4-(6-(trifluoromethyl)quinolin-2-yl)phenyl)-1H-pyrazole-5-carboxamide]",< 200 nM
4,"Cc1cc(-c2ncc3nc(C(F)(F)F)cc(C)c3n2)ccc1N(C)C(=O)c1ccnn1CC(C)(C)O [Example 224, 1-(2-hydroxy-2-methylpropyl)-N-methyl-N-(2-methyl-4-(8-methyl-6-(trifluoromethyl)pyrido[3,2-d]pyrimidin-2-yl)phenyl)-1H-pyrazole-5-carboxamide]",200 to 500 nM
5,"Cc1cc(C(=O)Nc2ccc(-c3ncc4nc(OC(F)(F)F)cc(C)c4n3)cc2C)ccn1 [Example 160, 2-methyl-N-(2-methyl-4-(8-methyl-6-(trifluoromethoxy)pyrido[3,2-d]-pyrimidin-2-yl)phenyl)isonicotinamide]",< 200 nM
6,"Cc1c(-c2ncc3cc(C(F)(F)F)ccc3n2)ccc(NC(=O)c2ccnn2C)c1F [Example 113, N-(2-fluoro-3-methyl-4-(6-(trifluoromethyl)quinazolin-2-yl)phenyl)-1-methyl-1H-pyrazole-5-carboxamide]",200 to 500 nM
7,"Cc1c(-c2ccc3cc(C(F)(F)F)ccc3n2)ccc(N(C)C(=O)c2ccnn2C)c1F [Example 006, N-(2-fluoro-3-methyl-4-(6-(trifluoromethyl)quinolin-2-yl)phenyl)-N,1-dimethyl-1H-pyrazole-5-carboxamide]",1000 to 10000 nM
8,"Cc1cc(-c2nc3ccc(F)cc3s2)ccc1NC(=O)c1ccnn1C [Example 098, N-(4-(6-fluorobenzo[d]thiazol-2-yl)-2-methylphenyl)-1-methyl-1H-pyrazole-5-carboxamide]",1000 to 10000 nM
9,"Cc1cc(-c2ccc3nc(C(F)(F)F)ccc3n2)ccc1N(C)C(=O)c1ccnn1CCO [Example 210, 1-(2-hydroxyethyl)-N-methyl-N-(2-methyl-4-(6-(trifluoromethyl)-1,5-naphthyridin-2-yl)phenyl)-1H-pyrazole-5-carboxamide]",< 200 nM
10,"COc1cnccc1C(=O)N(C)c1ccc(-c2ncc3nc(C(F)(F)F)cc(C)c3n2)cc1C [Example 183, 3-methoxy-N-methyl-N-(2-methyl-4-(8-methyl-6-(trifluoromethyl)-pyrido[3,2-d]pyrimidin-2-yl)phenyl)isonicotinamide]",< 200 nM
11,"Cc1cc(C(=O)N(C)c2ccc(-c3ncc4cc(C(F)(F)F)ccc4n3)cc2C)c(C)cn1 [Example 126, N,2,5-trimethyl-N-(2-methyl-4-(6-(trifluoromethyl)quinazolin-2-yl)phenyl)isonicotinamide]",< 200 nM
12,"Cc1cc(-c2ncc3cc(C(F)(F)F)cc(C)c3n2)ccc1NC(=O)c1ccnn1C [Example 110, 1-methyl-N-(2-methyl-4-(8-methyl-6-(trifluoromethyl)quinazolin-2-yl)phenyl)-1H-pyrazole-5-carboxamide]",< 200 nM
13,"Cc1cc(-c2ccc3ncn(C)c3c2)ccc1NC(=O)c1ccnn1C [Example 089, 1-Methyl-N-(2-methyl-4-(1-methyl-1H-benzo[d]imidazol-6-yl)phenyl)-1H-pyrazole-5-carboxamide]",1000 to 10000 nM
14,"Cc1cc(-c2ccc3cc(C(F)(F)F)cc(C)c3n2)ccc1N(C)C(=O)c1ccnn1CCO [Example 201, 1-(2-hydroxyethyl)-N-methyl-N-(2-methyl-4-(8-methyl-6-(trifluoromethyl)-quinolin-2-yl)phenyl)-1H-pyrazole-5-carboxamide]",< 200 nM
